From patent US12559461B2, “Antibiotic adjuvant compounds” (UNIVERSITY OF NOTRE DAME DU LAC, priority 2020, dated 2026)
Where two headings read alike, the source gives them in different places.

What was measured:
Format in all cases: cell-based, Acinetobacter baumannii
[1] = test system: AB5075; experiment: Broth microdilution MIC of compound alone (standalone toxicity); details: Acinetobacter baumannii
Procedure: (§1) Bacterial Strains and Antimicrobial Agents. Acinetobacter baumannii clinical isolate 5075 was obtained from Dr. Colin Manoil at the University of Washington. Colonies were grown on lysogeny broth (LB) agar. Cation-adjusted Mueller-Hinton Broth (CAMHB) (catalog number 212322) were purchased from BD Diagnostics. LB broth was purchased from Fisher Scientific (catalog number BP9722-2). […] Colistin sulfate salt (catalog number C4461) was purchased from Sigma Aldrich. All assays were completed in duplicate and repeated at least two separate times. All compounds were dissolved as their HCl salts in molecular biology grade DMSO as 10 or 100 mM stock solutions and stored at −20° C. Colistin was dissolved in sterile water while clarithromycin was dissolved in molecular biology grade DMSO.
(§2) Broth microdilution method for MIC determination. Day cultures (6 h) of each bacterial strain in cation adjusted Mueller Hinton II broth (CAMHB, Fisher Scientific U.S.) were subcultured to 5×10^5 CFU/mL in CAMHB. Aliquots (1 mL) were placed in culture tubes and compound was added from 10 mM stock samples in DMSO, such that compound concentration equaled highest concentration tested (200 μM). Samples were then aliquoted (200 μL) into the first wells of a 96-well plate, with all remaining wells being filled with 100 μL of initial bacterial subculture. Row one wells were mixed five times, before 100 μL was transferred to row two. Row two was then mixed five times, and 100 μL was transferred to row three. This process was repeated until the final row had been mixed; this served to serially dilute the compound. Plates were then covered with GLAD Press n'Seal and incubated under stationary conditions at 37° C. for 16 h. MIC values were then recorded as the lowest concentration at which no bacterial growth was observed.

[2] = test system: AB5075; experiment: Broth microdilution clarithromycin (CLR) potentiation and dose-response of adjuvant
Procedure: as §1
(§3) Broth microdilution method for antibiotic potentiation. Day cultures (6 h) of bacteria in CAMHB were subcultured to 5×10^5 CFU/mL in CAMHB. Aliquots (4 mL) were placed in culture tubes and dosed with compound from 10 mM stock samples to give the desired concentration of the compound to be tested against the particular bacterial strain; this insured non-toxic DMSO concentrations ≤0.3% in each well. 1 mL of the resulting solution was placed in a separate culture and dosed with antibiotic at the highest concentration to be tested. Bacteria treated with antibiotic alone served as the control. Row one of a 96-well plate was filled with 200 μL of the antibiotic/2-AI solution, and rows 2-12 were filled with 100 μL each of the remaining 4 mL of bacterial subculture containing adjuvant at the desired concentration, except for the control lane which contained only bacterial subculture. Row one was then mixed five times, and 100 μL was transferred to row two, which was then mixed five times before being transferred to row three. This process was repeated until all rows had been mixed, except for row twelve which would have only 2-AI to serve as a control to monitor potential toxicity. The 96-well plate was then covered in Glad Press n'Seal and incubated under stationary conditions at 37° C. for 16 h. MIC values were determined as the lowest concentration at which no bacterial growth was observed, and fold reductions were determined by comparison to antibiotic control lane.
Dose-response of Adjuvant Assay. The procedure for ‘broth microdilution method for antibiotic potentiation’ was followed using 4 mL aliquots of adjuvant at various concentrations: 0, 5, 7.5, 10, 15, 20, 25, and 30 μM.

[3] = test system: A. baumannii isolates (23 strains); experiment: Minimum inhibitory concentration against AB isolates; details: Acinetobacter baumannii, compound alone, read-out: Minimum inhibitory concentration of compound
Procedure: as §2

[4] = test system: A. baumannii isolates (23 strains); experiment: Clarithromycin potentiation against AB isolates; details: adjuvant at 7.5 μM
Procedure: as §3

Cl.Nc1nc(-c2ccc(NC(=O)Nc3cc(Br)cc(Br)c3)cc2)c[nH]1 [Compound 20a, 1-(4-(2-amino-1H-imidazol-4-yl)phenyl)-3-(3,5-dibromophenyl)urea hydrochloride]
MIC [1]: 50 µM | CLR MIC ([2]; compound tested at 5 μM): 4 µg/mL | Fold Reduction of CLR MIC ([2]; compound tested at 5 μM): 8 fold | CLR MIC ([2]; compound tested at 7.5 μM): 0.25 µg/mL | Fold Reduction of CLR MIC ([2]; compound tested at 7.5 μM): 128 fold | CLR MIC ([2]; compound tested at 15 μM): 0.125 µg/mL | Fold Reduction of CLR MIC ([2]; compound tested at 15 μM): 256 fold | MIC ([3]; A. baumannii strain 3560): 25 µM | MIC ([3]; A. baumannii strain 3785): 50 µM | MIC ([3]; A. baumannii strain 3806): 25 µM | MIC ([3]; A. baumannii strain 3927): 100 µM | MIC ([3]; A. baumannii strain 4025): 100 µM | MIC ([3]; A. baumannii strain 4026): 50 µM | MIC ([3]; A. baumannii strain 4027): 50 µM | MIC ([3]; A. baumannii strain 4052): 50 µM | MIC ([3]; A. baumannii strain 4269): 50 µM | MIC ([3]; A. baumannii strain 4448): 100 µM | MIC ([3]; A. baumannii strain 4456): 25 µM | MIC ([3]; A. baumannii strain 4490): 100 µM | MIC ([3]; A. baumannii strain 4498): 50 µM | MIC ([3]; A. baumannii strain 4795): 25 µM | MIC ([3]; A. baumannii strain 4857): 50 µM | MIC ([3]; A. baumannii strain 4878): 50 µM | MIC ([3]; A. baumannii strain 4957): 50 µM | MIC ([3]; A. baumannii strain 4991): 50 µM | MIC ([3]; A. baumannii strain 5001): 50 µM | MIC ([3]; A. baumannii strain 5197): 25 µM | MIC ([3]; A. baumannii strain 5256): 25 µM | MIC ([3]; A. baumannii strain 5711): 25 µM | MIC ([3]; A. baumannii strain 8967): 100 µM | CLR MIC + adjuvant ([4]; A. baumannii strain 3560): 1 µg/mL | CLR MIC + adjuvant ([4]; A. baumannii strain 3785): 1 µg/mL | CLR MIC + adjuvant ([4]; A. baumannii strain 3806): 0.25 µg/mL | CLR MIC + adjuvant ([4]; A. baumannii strain 3927): 0.5 µg/mL | CLR MIC + adjuvant ([4]; A. baumannii strain 4025): 1 µg/mL | CLR MIC + adjuvant ([4]; A. baumannii strain 4026): 1 µg/mL | CLR MIC + adjuvant ([4]; A. baumannii strain 4027): 1 µg/mL | CLR MIC + adjuvant ([4]; A. baumannii strain 4052): 0.5 µg/mL | CLR MIC + adjuvant ([4]; A. baumannii strain 4269): 2 µg/mL | CLR MIC + adjuvant ([4]; A. baumannii strain 4448): 0.5 µg/mL | CLR MIC + adjuvant ([4]; A. baumannii strain 4456): 1 µg/mL | CLR MIC + adjuvant ([4]; A. baumannii strain 4490): 1 µg/mL | CLR MIC + adjuvant ([4]; A. baumannii strain 4498): 2 µg/mL | CLR MIC + adjuvant ([4]; A. baumannii strain 4795): 0.5 µg/mL | CLR MIC + adjuvant ([4]; A. baumannii strain 4857): 0.5 µg/mL | CLR MIC + adjuvant ([4]; A. baumannii strain 4878): 0.5 µg/mL | CLR MIC + adjuvant ([4]; A. baumannii strain 4957): 0.5 µg/mL | CLR MIC + adjuvant ([4]; A. baumannii strain 4991): 0.5 µg/mL | CLR MIC + adjuvant ([4]; A. baumannii strain 5001): 1 µg/mL | CLR MIC + adjuvant ([4]; A. baumannii strain 5197): 1 µg/mL | CLR MIC + adjuvant ([4]; A. baumannii strain 5256): 0.25 µg/mL | CLR MIC + adjuvant ([4]; A. baumannii strain 5711): 1 µg/mL | CLR MIC + adjuvant ([4]; A. baumannii strain 8967): 0.25 µg/mL
